These results are taken from PubChem BioAssay AID2765 (Broad Institute, 2010).

Activity calls are given as the source filed them.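 How the source made its calls: active means half-maximal concentration for the rise in caspase light signal at or below ten times the top tested dose; inconclusive means flat fit between 30% and 70% activity, or unreliable curve fit; inactive means the rest.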

For this assay, the system named is MEF A1-2A-BIM cells, caspase 3/7 luminescence, 3 h. As to the kind of experiment: caspase activation in A1-2A-BIM MEF cells, dose response, A1 inhibitor project, cell-based, luminescence, retest (AID 2765).
A word on the EC50: it is the concentration at which the effect is half-maximal. Turning to `COc1ccccc1CN1CC(C(=O)NCCN2CCNC2=O)CCC1=O` (configuration not stated), the EC50 is > 35 µM (inactive).
For `COc1cc2cnc(-c3ccccc3)c(-c3cccc(C(F)(F)F)c3)c2cc1OC` the value was > 35 µM (inactive); for `COc1ccc(S(=O)(=O)N2CCCCC2C)cc1` (configuration not stated), > 35 µM (inactive).
For `CCOC(=O)CS(=O)(=O)c1nc(-c2ccccc2)cc(C(F)(F)F)n1` the value was > 35 µM (inactive); for `Cc1cc(=O)[nH]c(SCC(=O)Nc2ccc(Br)cc2)c1C#N`, > 35 µM (inactive).
`O=C(CN(C(=O)CCC(=O)Nc1nccs1)c1cccc(F)c1)NCc1ccccc1`: the EC50 is > 35 µM (inactive).
For `CN(c1ccc(OCC(=O)NC2CCC(O)CC2)cc1)S(=O)(=O)c1ccc(Cl)cc1` (configuration not stated) the value was > 35 µM (inactive); for `Cc1ccc2c(C(=O)N3CCN(c4ccccc4)CC3)cc(-c3cccnc3)nc2c1C`, > 35 µM (inactive); for `CN(C)CCCN(C(=O)c1ccc([N+](=O)[O-])s1)c1nc2cc3c(cc2s1)OCCO3`, > 16 µM (inactive).
As to `CCC(Sc1nc2cc3c(cc2c(=O)n1Cc1ccco1)OCO3)C(=O)Nc1cccc(OC)c1` (configuration not stated), the EC50 was > 35 µM (inactive).
For `Cc1ccc(NC(=O)Cn2c(=O)cnc3ccccc32)cc1S(=O)(=O)N1CCOCC1` the value was > 35 µM (inactive).
As to `CCOC(=O)CC1=C(C(=O)OCC)C2(C(=O)Nc3ccccc32)C(C#N)=C(N)O1` (configuration not stated), the EC50 was > 35 µM (inactive).
Consider `COc1ccc(S(=O)(=O)Nc2c(C)n(C)n(-c3ccccc3)c2=O)cc1`, for which the EC50 is > 35 µM (inactive).
Take `CCOc1cc(C(=O)CSc2nnc(CNc3ccc(Cl)cc3)o2)ccc1NC(=O)CC`: the EC50 was 16 µM.
Consider `O=C(Cc1ccccc1)Oc1cccc(N2C(=O)CCC2=O)c1`, for which the EC50 was > 35 µM (inactive).
The result for `FC(F)(F)c1cccc(Cc2noc(CN3CCCC(OCc4ccccn4)C3)n2)c1` (configuration not stated) reads > 35 µM (inactive); that for `CCCC(=O)Nc1ncnc2c1ncn2[C@@H]1O[C@@H]2OP(=O)(O)OC[C@H]2[C@H]1OC(=O)CCC`, > 35 µM (inactive).
For `CC(c1ccccc1)n1c(CCCO)nc2ccccc21` (configuration not stated), the EC50 was > 35 µM (inactive).
For the molecule `Cc1cc(NC(=O)COC(=O)C2=NN(c3ccccc3)C(=O)CC2)c([N+](=O)[O-])cc1C`, the EC50 is > 35 µM (inactive).
Regarding `CCCS(=O)(=O)C/C(N)=N/OC(=O)c1ccc(Cl)cc1`, the EC50 was > 35 µM (inactive).
The result for `CCOC(=O)C(=Cc1ccc(OCc2ccc([N+](=O)[O-])cc2)c(OC)c1)C(=O)OCC` reads > 35 µM (inactive); that for `O=C(O)c1cc(-c2ccc(Cl)cc2)n(-c2cccc(Cl)c2)n1`, > 35 µM (inactive).
In the case of `CC(=O)OC(C)(C)/C=C/C(=O)[C@](C)(O)C1[C@H](O)C[C@@]2(C)C3CC=C4C(C[C@H](O)C(=O)C4(C)C)[C@]3(C)C(=O)C[C@]12C` (some centres not stated), the EC50 is > 35 µM (inactive).
For `CS(=O)(=O)c1sc(C#N)c2c1C(=O)CC(c1ccccc1)C2` (configuration not stated), the EC50 was > 35 µM (inactive).
In the case of `Cc1ccc2[nH]c3c(c2c1)CCCC3NC(=O)CCl` (configuration not stated), the EC50 was > 35 µM (inactive).
The result for `Cc1ccc(S(=O)(=O)n2ccc3c(OCCOCCNCc4ccc(F)cc4)cccc32)cc1` reads > 35 µM (inactive); that for `O=C(NC[C@H]1CCCO1)c1cccc2c1C(=O)c1ccc(-c3ccc(F)cc3OCc3ccccc3)cc1S2(=O)=O`, > 35 µM (inactive); that for `Cc1ccc(C(=O)NCC(=O)OC(C)C(=O)Nc2ccc(N(C)C)cc2)s1` (configuration not stated), > 35 µM (inactive).
The result for `COc1ccc(NC(=O)CN2CCC(NC(=O)c3ccc(OC)cc3)CC2)cc1` reads > 35 µM (inactive); that for `C=CCn1c(SCc2ccc(F)cc2)nnc1-c1sc2nc(C)cc(C)c2c1N`, > 35 µM (inactive); that for `O=C(NNC(=O)c1cc(C(F)(F)F)cc(C(F)(F)F)c1)c1ccc(Cl)cc1`, > 35 µM (inactive).
As to `CC(C)(C)OC(=O)n1cc(CCO)c2ccccc21`, the EC50 was > 35 µM (inactive).
On to `OC(CNCC1COc2ccccc2O1)COc1ccc(Cl)cc1` (configuration not stated), for which the EC50 was > 35 µM (inactive).
For `COc1ccc(C(=O)N/C(=C/c2cccs2)C(=O)NN)cc1OC` the value was > 35 µM (inactive); for `O=C(Nc1ccc([N+](=O)[O-])cc1)C(Cc1ccccc1)N1C(=O)c2cccc3cccc(c23)C1=O` (configuration not stated), > 35 µM (inactive); for `COC(=O)c1ccc(CNC(=O)C2CCC(=O)N(CCc3ccccc3)C2)cc1` (configuration not stated), > 35 µM (inactive).
`COc1ccc(C(=O)COC(=O)CNS(=O)(=O)c2ccc(C)cc2)cc1`: the EC50 was > 35 µM (inactive).
For `CCS(=O)(=O)c1ncc(Cl)c(C(=O)Nc2ccc(C)cc2)n1` the value was > 35 µM (inactive).
For the molecule `CC1=NNC(=O)/C1=C\c1cn(-c2ccccc2)nc1-c1ccccc1`, the EC50 is 11.8 µM.
The result for `CC(=O)[C@]1(O)Cc2c(O)c3c(c(O)c2[C@@H](O[C@H]2C[C@H](N)[C@H](O)[C@H](C)O2)C1)C(=O)c1ccccc1C3=O` reads > 35 µM (inactive); that for `O=C(Cc1cn2ccsc2n1)Nc1cccc2cnccc12`, > 35 µM (inactive); that for `Cc1ccc(CCNC(=O)c2cc(-c3ccncc3)nc3ccc(S(=O)(=O)N4CCOCC4)cc23)cc1`, > 35 µM (inactive).
For `CC(C)CN(CC(C)C)C(=O)c1cc2c(=O)n3ccccc3nc2s1` the value was > 35 µM (inactive); for `Nc1nc(Cl)nc2c1ncn2[C@H]1C[C@H](O)[C@@H](CO)O1`, > 35 µM (inactive); for `CCOC(=O)C(Cc1ccc(N)cc1)N1C(=O)c2ccccc2C1=O` (configuration not stated), > 35 µM (inactive).
Turning to `O=C(NCCN1CCOCC1)c1cc(Cl)ccc1Cl`, the EC50 was > 35 µM (inactive).
Consider `CC(C)CCN(C(=O)Cc1ccc(Cl)c(Cl)c1)c1c(N)n(Cc2ccccc2)c(=O)[nH]c1=O`, for which the EC50 was 12 µM.
Turning to `CCOC(=O)C(C(=O)OCC)c1cc(Br)c2noc3c2c1C(=O)c1ccccc1-3`, the EC50 is > 35 µM (inactive).
The result for `CCCN1C(=O)/C(=N\OCC(=O)NC23CC4CC(CC(C4)C2)C3)c2ccccc21` reads > 35 µM (inactive); that for `Cn1c2ccccc2c2cnn(CC(=O)NCCCN3CCN(c4ccccc4F)CC3)c(=O)c21`, > 35 µM (inactive); that for `CC/C(=C1/C(=O)CC(C)(C)C(C(=O)OC)C1=O)N1CCCC1` (configuration not stated), > 35 µM (inactive).
For the molecule `CCOc1ccccc1NC(=O)CN1C(=O)CSC(C)C1=O` (configuration not stated), the EC50 was > 35 µM (inactive).
For `CCN(CC)c1ccc2c(c1)oc(=O)c1c(Cl)cc(=O)oc12` the value was > 35 µM (inactive); for `CCS(=O)(=O)c1nc2ccccc2n1Cc1ccccn1`, > 35 µM (inactive).
For the molecule `O=C(/C=C/c1cccc(Cl)c1)c1ccc([N+](=O)[O-])o1`, the EC50 is > 35 µM (inactive).
For the molecule `COCCCN(C(=O)Nc1ccccc1)C(C)c1ccncc1` (configuration not stated), the EC50 was > 35 µM (inactive).
Consider `O=C(Nc1ccccc1N1CCCCC1)c1ccc(Cl)cc1`, for which the EC50 is > 35 µM (inactive).
Take `N#C/C(=C\c1ccc(OCc2ccccc2)cc1)C(=O)Nc1nc2c(s1)CCN(Cc1ccccc1)C2`: the EC50 was > 35 µM (inactive).
The result for `Cc1cc(N2C(=O)CCC2=O)n(-c2ccccc2)n1` reads > 35 µM (inactive); that for `N#C/C(=C/c1ccc(N2CCOCC2)o1)c1ccc(Br)cc1`, > 35 µM (inactive); that for `O=P(C(c1c[nH]c2ccccc12)N1CCOCC1)(N1CCOCC1)N1CCOCC1` (configuration not stated), > 35 µM (inactive).
On to `CN(C)C(=O)[C@@H]1C[C@H]1[C@@H](NC(=O)OCc1ccccc1)c1ccccc1`, for which the EC50 is > 35 µM (inactive).
With `Cc1cc(Sc2ncnc(N)c2[N+](=O)[O-])ncn1`, the EC50 is > 35 µM (inactive).
Take `O=C(O)CCC(=NNC(=O)c1cccc(S(=O)(=O)N2CCCCC2)c1)c1ccccc1`: the EC50 was > 35 µM (inactive).
As to `CCOc1ccc(N2CC(C(=O)NNC(=O)c3ccc(Br)cc3)CC2=O)cc1` (configuration not stated), the EC50 was > 35 µM (inactive).
For `CCN(C[C@H]1N[C@@](CC)(C(=O)OC)[C@H]2C(=O)N(Cc3ccccc3)C(=O)[C@@H]12)C(=O)c1ccc(F)cc1` the value was > 35 µM (inactive); for `CCOC(=O)C1=NOC(COc2ccccc2C=O)C1` (configuration not stated), > 35 µM (inactive).
For `COc1ccc(C(=O)Nc2ccc(S(=O)(=O)NC(C)=O)cc2)cc1[N+](=O)[O-]`, the EC50 is > 35 µM (inactive).
The result for `COc1cc(NC(=O)c2nn(C)c3c2CS(=O)(=O)c2ccccc2-3)cc(OC)c1` reads > 35 µM (inactive); that for `CCCNC(=O)c1ccc(COc2ccc(Cl)cc2)o1`, > 35 µM (inactive).
Consider `CC1CCCCC12NC(=O)N(CC(=O)c1ccc(Cl)s1)C2=O` (configuration not stated), for which the EC50 is > 35 µM (inactive).
Regarding `Cc1cc(Br)c(OCc2ccc(C(=O)N/N=C/c3ccc[nH]3)cc2)c(Br)c1`, the EC50 was 33.8 µM.
Regarding `Cc1ccc(C(C[N+](=O)[O-])c2c(C)[nH]n(-c3ccccc3)c2=O)cc1` (configuration not stated), the EC50 is > 35 µM (inactive).
For `COc1ccc(S(=O)(=O)N2CCC(C(=O)N[C@@H](C)C(=O)NCc3ccncc3)CC2)cc1` the value was > 35 µM (inactive); for `Cc1ccc(-c2noc(CSc3nnc(CCc4ccccc4)n3-c3ccccc3)n2)cc1`, > 35 µM (inactive); for `CCOC(=O)/C(=C\c1ccc(OC)c(OC)c1)C(=O)c1cccnc1`, > 35 µM (inactive).
For `Cc1nc(SCc2nc3c([N+](=O)[O-])cccc3[nH]2)c2oc3ccccc3c2n1`, the EC50 is > 35 µM (inactive).
For `O=C(O)c1ccc2c(c1)C(=O)N(c1ccc(Cl)cn1)C2=O` the value was > 35 µM (inactive); for `CCCCN1C(=O)C(NC(C)=O)c2cc(Br)ccc21` (configuration not stated), > 35 µM (inactive); for `CCOC(=O)CN(Cc1ccccc1)C(=O)OC(C)(C)C`, > 35 µM (inactive).
For `CCOC(=O)c1cccc(NC(=O)CN(c2ccc(C)cc2)S(=O)(=O)c2c(C)noc2C)c1` the value was > 35 µM (inactive).
For `O=c1c(Cl)c(Cl)cnn1Cc1ccccc1Cl` the value was > 35 µM (inactive).
